From EPA's ToxValDB 9.5 (doi:10.2903/j.efsa.2016.4575)
In brackets after ≈: the same amount, converted by molar mass.

Tests used:
[1] = tested on: Typhlodromus pyri; assay: LR50; higher = less toxic; conditions: not reported; mortality
[2] = tested on: Daphnia magna; conditions: chronic/long-term; duration: 21 days
[3] = tested on: Apis mellifera; conditions: acute, mortality
[4] = tested on: Colinus virginianus; conditions: chronic
[5] = tested on: Tagia sp.; conditions: chronic/long-term; mortality
[6] = tested on: Bird; conditions: acute; oral; unspecified; mortality
[7] = tested on: Canidae; conditions: Dog Other; for NOAEL: oral, hematological
[8] = tested on: Bibionidae; conditions: chronic/long-term; duration: 23 days
[9] = tested on: Rattus norvegicus
[10] = tested on: Folsomia candida; conditions: chronic/long-term; reproduction
[11] = tested on: Oncorhynchus mykiss
[12] = tested on: Coturnix japonica; conditions: acute; oral; M; mortality

Work on COc1cc(OC)nc(NC(=O)NS(=O)(=O)c2ncccc2C(F)(F)F)n1 [Flazasulfuron] yielded an LR50 [1] greater than 50 g/ha, an NOEC [2] of 6.2 mg/L and an LD50 ([3]; dermal) greater than 25.9 µg/piece. It also gave an LD50 ([3]; oral, unspecified) greater than 46.3 µg/piece, an NOAEL [4] of 95.9 mg/kg-day and an NOEC [5] of 8 mg/kg. It also gave an LD50 [6] of 2120 mg/kg-day, an NOAEL ([7]; chronic, duration: 1 years) of 2 mg/kg-day and an LEC ([7]; repeat dose other) of 2 mg/kg-day. The NOAEL ([7]; subchronic, duration: 90 days) was 2 mg/kg-day, the NOEC [8] was 0.1 mg/L and the LD50 ([9]; acute, oral, mortality) was 1320 mg/kg-day. It also gave an NOAEL ([9]; chronic, duration: 2 years, other) of 1.3 mg/kg-day, an NOAEL ([9]; reproduction developmental) of 11 mg/kg-day and an NOAEL ([9]; reproduction developmental, body weight) of 100 mg/kg-day. It also gave an NOEC [10] of 125 mg/kg, an LC50 ([11]; acute, duration: 96 hours, mortality) of 22 µg/mL (≈ 54 µM) and an NOEC ([11]; chronic/long-term, duration: 21 days) of 5 mg/L. The LD50 [12] was 995 mg/kg-day.
